Source: publication PMC7529893, “Structural basis for substrate recognition and chemical inhibition of oncogenic MAGE ubiquitin ligases” (Nature Communications, 2020)
“Also recorded” adds a separate entry of the source.

Experiments:
[1] = target: T1, MAGE-A11 binding to PCF11 (Homo sapiens, UniProt P43364); assay: Pull-down (co-IP) of FLAG-MAGE-A11 with endogenous PCF11 in cell lysate; conditions: 100 µM, 24 h, FLAG-MAGE-A11 HEK293FT cell lysates
T1 construct: expressed in transfected cells
T1 sequence (P43364 1-429): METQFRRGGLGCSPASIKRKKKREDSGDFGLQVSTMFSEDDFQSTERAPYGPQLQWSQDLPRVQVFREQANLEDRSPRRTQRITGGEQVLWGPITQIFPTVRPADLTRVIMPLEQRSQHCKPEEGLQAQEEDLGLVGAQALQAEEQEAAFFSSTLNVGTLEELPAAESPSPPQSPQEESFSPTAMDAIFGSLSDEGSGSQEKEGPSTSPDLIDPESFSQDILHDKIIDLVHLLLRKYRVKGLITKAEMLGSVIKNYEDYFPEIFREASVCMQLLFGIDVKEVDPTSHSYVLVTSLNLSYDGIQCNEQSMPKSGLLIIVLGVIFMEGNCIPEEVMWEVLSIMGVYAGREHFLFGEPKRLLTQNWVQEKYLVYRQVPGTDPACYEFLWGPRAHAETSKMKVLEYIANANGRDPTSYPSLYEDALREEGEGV
Protocol: (§1) HEK293FT cells were plated in 6 cm^2 plates and transfected 24 h later with Effectene (QIAGEN) according to the manufacturer’s protocol. After 48 h, cells were washed and scraped in cold PBS, spun down, and resuspended in lysis buffer (50 mM Tris pH 7.4, 150 mM NaCl, 1 mM DTT, 0.1% (v/v) Triton X-100, 10 mM N-Ethylmaleimide, and 1X protease inhibitor cocktail (Sigma)). Cell lysates were incubated with appropriate antibodies overnight at 4 °C and then with protein A beads for 2 h at 4 °C. Beads were then washed with lysis buffer three times and eluted with 2X SDS sample buffer.
(§2) For western blotting, samples in SDS sample buffer were resolved on SDS-PAGE gels and then transferred to nitrocellulose membranes prior to blocking in TBST with 5% (w/v) milk powder or 3% (w/v) bovine serum albumin and probing with primary and secondary antibodies (GE Healthcare). Primary antibodies were: anti-Myc (Sigma, #C3956), anti-FLAG (Sigma, #F3165), anti-HUWE1 (Novus Biologicals, #NB 100-652), anti-PCF11 (Bethyl Laboratories, #A303-706A), anti-GAPDH (Cell Signaling Technology, #2118), anti-TRIM28 (Abcam, #ab22553), anti-AMPKα1 (Cell Signaling Technology, #2795), and anti-MMS19 (Proteintech, #16015-1-AP) and Tb-anti-GST (Invitrogen, #PV3551). Secondary antibodies were: Donkey Anti-Rabbit IgG (GE Healthcare, NA934V) and Sheep Anti-Mouse IgG (GE Healthcare, NA931V). […]

MAGE-A3:AMPKα1 = target: T2, MAGE-A3:AMPKα1 (Homo sapiens, UniProt P43357); assay: Co-IP of MAGE-A3 with AMPKα1 in cell lysate; format: binding; conditions: 100 µM, 24 h
T2 construct: expressed in transfected cells
T2 sequence (P43357 whole entry): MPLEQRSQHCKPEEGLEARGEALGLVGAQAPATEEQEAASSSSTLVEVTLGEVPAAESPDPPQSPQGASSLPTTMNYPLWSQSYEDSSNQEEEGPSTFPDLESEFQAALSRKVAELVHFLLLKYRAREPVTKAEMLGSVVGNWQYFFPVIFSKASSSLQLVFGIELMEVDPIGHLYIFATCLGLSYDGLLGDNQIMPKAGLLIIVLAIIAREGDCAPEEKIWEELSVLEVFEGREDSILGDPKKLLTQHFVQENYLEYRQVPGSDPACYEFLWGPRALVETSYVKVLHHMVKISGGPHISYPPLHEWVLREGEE
Protocol: as §1, §2

| Compound | MAGE-A11 binding to PCF11 in cell lysate ([1]; listed as SJ521054) | interaction of MAGE-A3 with AMPKα1 in cell lysate (MAGE-A3:AMPKα1; listed as SJ521054) | MAGE-A11 binding to PCF11 in cell lysate ([1]; listed as SJ1008066) | interaction of MAGE-A3 with AMPKα1 in cell lysate (MAGE-A3:AMPKα1; listed as SJ1008066) |
| --- | --- | --- | --- | --- |
| FC(F)(F)c1ccc2c(NCCCNCc3ccc4[nH]ccc4c3)ccnc2c1 [SJ000521054-02] | inhibited MAGE-A11 binding to PCF11 in cell lysates | do not disrupt interaction; also recorded: did not disrupt interaction | – | – |
| c1ccc2c(NCCCNCc3ccc4[nH]ccc4c3)ccnc2c1 [SJ001008066-01] | – | – | inhibited MAGE-A11 binding to PCF11 in cell lysates | do not disrupt interaction; also recorded: did not disrupt interaction |
